Experimental data taken from patent US8524702B2, “Substituted benzoazepines as toll-like receptor modulators” (VentiRx Pharmaceuticals, Inc., priority 2009, dated 2013).
Counter-ions that a name gives are not always drawn.

Columns and labels:
[1] = molecular target: T1, TLR8 (Homo sapiens, UniProt Q9NR97); assay: PBMC assay for TLR8 (TNFα in supernatants by ELISA); assay type: cell-based; parameters: Peripheral blood mononuclear cells (PBMCs) from human blood were isolated; endogenous in cells; host or cells: human PBMCs; conditions: human PBMCs incubated with compound overnight, MC50 = concentration at which 50% of the maximum induction is seen
T1 sequence (Q9NR97 27-1041): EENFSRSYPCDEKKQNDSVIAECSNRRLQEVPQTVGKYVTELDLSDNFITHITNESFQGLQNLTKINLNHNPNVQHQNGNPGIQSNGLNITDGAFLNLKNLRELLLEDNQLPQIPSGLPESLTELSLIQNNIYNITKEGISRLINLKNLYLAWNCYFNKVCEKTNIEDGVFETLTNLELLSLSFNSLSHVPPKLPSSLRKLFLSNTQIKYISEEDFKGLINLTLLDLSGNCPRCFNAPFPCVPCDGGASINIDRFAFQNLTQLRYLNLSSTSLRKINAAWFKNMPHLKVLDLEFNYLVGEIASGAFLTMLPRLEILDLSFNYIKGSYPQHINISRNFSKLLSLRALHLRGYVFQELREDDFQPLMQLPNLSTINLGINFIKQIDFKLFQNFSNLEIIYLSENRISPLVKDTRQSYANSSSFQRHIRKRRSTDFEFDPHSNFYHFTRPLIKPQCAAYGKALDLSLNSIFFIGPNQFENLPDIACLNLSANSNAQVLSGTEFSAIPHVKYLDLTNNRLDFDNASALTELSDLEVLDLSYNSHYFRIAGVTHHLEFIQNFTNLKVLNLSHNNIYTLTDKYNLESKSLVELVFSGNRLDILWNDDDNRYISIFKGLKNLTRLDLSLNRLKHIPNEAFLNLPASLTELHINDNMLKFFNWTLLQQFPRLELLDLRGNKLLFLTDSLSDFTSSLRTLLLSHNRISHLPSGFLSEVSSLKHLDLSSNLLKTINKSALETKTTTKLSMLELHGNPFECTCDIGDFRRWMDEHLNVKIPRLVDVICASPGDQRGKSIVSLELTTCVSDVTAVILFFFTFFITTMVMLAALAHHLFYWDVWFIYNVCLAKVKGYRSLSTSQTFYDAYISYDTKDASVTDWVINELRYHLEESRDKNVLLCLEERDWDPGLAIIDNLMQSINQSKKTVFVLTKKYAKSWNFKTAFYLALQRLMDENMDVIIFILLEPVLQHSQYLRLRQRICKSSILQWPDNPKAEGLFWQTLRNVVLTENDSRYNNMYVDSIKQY
Method: (§1) Peripheral blood mononuclear cells (PBMCs) from human blood were isolated using BD Vacutainer Cell Preparation Tubes with sodium citrate. Cells were incubated with compound overnight. TLR8 activity was assayed by measuring the amount of TNFα in supernatants by ELISA. TLR7 activity was assayed by measuring the amount of IFNα in supernatants by ELISA (R&D Systems). […] The results of this assay are shown below in Tables 2 and 3.
(§2) MC50 numbers are represented as factors of ten, for example, + indicates an MC50 value of ×10^4, or a value in the tens of thousands of nanomolar (nM range); ++ indicates an MC50 value of ×10^3, or a value in the thousands; +++ indicates an MC50 value of ×10^2, or a value in the hundreds; and ++++ indicates an MC50 value of ×10^1 or 10°, or a value in the tens or ones.

[2] = molecular target: T2, TLR7 (Homo sapiens, UniProt Q9NYK1); assay: PBMC assay for TLR7 (IFNα in supernatants by ELISA); assay type: cell-based; parameters: Peripheral blood mononuclear cells (PBMCs) from human blood were isolated; endogenous in cells; host or cells: human PBMCs; conditions: human PBMCs incubated with compound overnight, MC50 = concentration at which 50% of the maximum induction is seen
T2 sequence (Q9NYK1 27-1049): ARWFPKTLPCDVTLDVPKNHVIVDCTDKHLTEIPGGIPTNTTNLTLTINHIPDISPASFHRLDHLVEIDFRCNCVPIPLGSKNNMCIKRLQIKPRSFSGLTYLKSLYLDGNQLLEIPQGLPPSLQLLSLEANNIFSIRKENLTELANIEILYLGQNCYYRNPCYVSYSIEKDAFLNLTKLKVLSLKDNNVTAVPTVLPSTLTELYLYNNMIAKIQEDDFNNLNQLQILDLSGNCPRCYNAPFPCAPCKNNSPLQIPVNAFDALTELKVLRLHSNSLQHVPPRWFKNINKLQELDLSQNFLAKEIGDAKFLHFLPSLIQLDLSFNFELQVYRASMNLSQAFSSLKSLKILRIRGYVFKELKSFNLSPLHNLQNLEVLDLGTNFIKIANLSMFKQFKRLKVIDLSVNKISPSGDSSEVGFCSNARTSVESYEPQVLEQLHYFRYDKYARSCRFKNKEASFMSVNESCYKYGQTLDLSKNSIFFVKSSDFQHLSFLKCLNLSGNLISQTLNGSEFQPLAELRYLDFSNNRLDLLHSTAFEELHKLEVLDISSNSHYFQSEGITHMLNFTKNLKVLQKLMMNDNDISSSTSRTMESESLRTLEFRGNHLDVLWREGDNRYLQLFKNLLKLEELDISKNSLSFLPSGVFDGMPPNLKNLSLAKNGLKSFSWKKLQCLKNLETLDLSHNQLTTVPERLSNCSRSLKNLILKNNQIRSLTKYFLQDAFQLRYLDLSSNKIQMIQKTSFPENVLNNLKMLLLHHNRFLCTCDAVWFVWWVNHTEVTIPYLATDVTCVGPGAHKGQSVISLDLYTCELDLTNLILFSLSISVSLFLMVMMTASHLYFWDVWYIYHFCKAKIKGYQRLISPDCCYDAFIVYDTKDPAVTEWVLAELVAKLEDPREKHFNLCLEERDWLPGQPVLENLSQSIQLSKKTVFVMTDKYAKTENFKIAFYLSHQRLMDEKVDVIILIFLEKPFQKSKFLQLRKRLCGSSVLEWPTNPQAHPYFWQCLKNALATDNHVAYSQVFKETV
Method: as §1, §2

| EC50 [1] [µM] | EC50 [2] [µM] | Compound |
| --- | --- | --- |
| 0.001 to 0.1 | 1 to 10 | CCCN(C[C@H](C)O)C(=O)C1=Cc2ccc(-c3ccc(C(=O)N4CCCC4)cc3)cc2N=C(N)C1 (single isomer, unassigned) [Compound 105] |
| 1 to 10 | 1 to 10 | CC(C)CN(CC(C)C)C(=O)C1=Cc2ccc(-c3ccc(C(=O)N4CCCC4)cc3)cc2N=C(N)C1 [Compound 103, (1E,4E)-2-amino-N,N-diisobutyl-8-(4-(pyrrolidine-1-carbonyl)phenyl)-3H-benzo[b]azepine-4-carboxamide] |
| 0.001 to 0.1 | 1 to 10 | CCCN(CC(C)O)C(=O)C1=Cc2ccc(-c3ccc(C(=O)N4CCCC4)cc3)cc2N=C(N)C1 (stereo not shown) [Compound 104, (1E,4E)-2-amino-N-(2-hydroxypropyl)-N-propyl-8-(4-(pyrrolidine-1-carbonyl)phenyl)-3H-benzo[b]azepine-4-carboxamide] |
| 0.001 to 0.1 | 1 to 10 | CCCN(CCCO)C(=O)C1=Cc2ccc(-c3ccc(C(=O)N4CCCC4)cc3)cc2N=C(N)C1 [Compound 109, (1E,4E)-2-amino-N-(3-hydroxypropyl)-N-propyl-8-(4-(pyrrolidine-1-carbonyl)phenyl)-3H-benzo[b]azepine-4-carboxamide] |
| 1 to 10 | 10 to 100 | NC1=Nc2cc(-c3ccc(C(=O)N4CCCC4)cc3)ccc2C=C(C(=O)N2C[C@@H](O)[C@H](O)C2)C1 [Compound 112, (4-((1E,4E)-2-amino-4-((3R,4R)-3,4-dihydroxypyrrolidine-1-carbonyl)-3H-benzo[b]azepin-8-yl)phenyl)(pyrrolidin-1-yl)methanone] |
| 0.1 to 1 | 10 to 100 | CCCN(CC(C)(C)O)C(=O)C1=Cc2ccc(-c3ccc(C(=O)N4CCCC4)cc3)cc2N=C(N)C1 [Compound 117, (1E,4E)-2-amino-N-(2-hydroxy-2-methylpropyl)-N-propyl-8-(4-(pyrrolidine-1-carbonyl)phenyl)-3H-benzo[b]azepine-4-carboxamide] |
| 0.1 to 1 | 1 to 10 | CCCN(CCOC)C(=O)C1=Cc2ccc(-c3ccc(C(=O)N4CCCC4)cc3)cc2N=C(N)C1 [Compound 119, (1E,4E)-2-amino-N-(2-methoxyethyl)-N-propyl-8-(4-(pyrrolidine-1-carbonyl)phenyl)-3H-benzo[b]azepine-4-carboxamide] |
| 0.1 to 1 | 1 to 10 | CCCN(CCC)C(=O)C1=Cc2ccc(-c3ccc(C(=O)N(CC)CC)cc3)cc2N=C(N)C1 [Compound 125, (1E,4E)-2-amino-8-(4-(diethylcarbamoyl)phenyl)-N,N-dipropyl-3H-benzo[b]azepine-4-carboxamide] |
| 0.1 to 1 | 1 to 10 | CCCN(CCC)C(=O)C1=Cc2ccc(-c3ccc(C(=O)N4CCCCC4)cc3)cc2N=C(N)C1 [Compound 126, (1E,4E)-2-amino-8-(4-(piperidine-1-carbonyl)phenyl)-N,N-dipropyl-3H-benzo[b]azepine-4-carboxamide] |
| 0.001 to 0.1 | 1 to 10 | CCCN(CCC)C(=O)C1=Cc2ccc(-c3ccc(C(=O)N4CC[C@H](O)C4)cc3)cc2N=C(N)C1 [Compound 128, (1E,4E)-2-amino-8-(4-((S)-3-hydroxypyrrolidine-1-carbonyl)phenyl)-N,N-dipropyl-3H-benzo[b]azepine-4-carboxamide] |
| 0.001 to 0.1 | 1 to 10 | CCCN(CCC)C(=O)C1=Cc2ccc(-c3cccnc3)cc2N=C(N)C1 [Compound 133, (1E,4E)-2-amino-N,N-dipropyl-8-(pyridin-3-yl)-3H-benzo[b]azepine-4-carboxamide] |
| 0.1 to 1 | 1 to 10 | CCCN(CCC)C(=O)C1=Cc2ccc(-c3ccncc3)cc2N=C(N)C1 [Compound 134, (1E,4E)-2-amino-N,N-dipropyl-8-(pyridin-4-yl)-3H-benzo[b]azepine-4-carboxamide] |
| 0.001 to 0.1 | 1 to 10 | CCCN(CCC)C(=O)C1=Cc2ccc(-c3cccc(C#N)c3)cc2N=C(N)C1 [Compound 136, (1E,4E)-2-amino-8-(3-cyanophenyl)-N,N-dipropyl-3H-benzo[b]azepine-4-carboxamide] |
| 0.001 to 0.1 | 10 to 100 | CCCN(CCC)C(=O)C1=Cc2ccc(-c3ccc(C#N)cc3)cc2N=C(N)C1 [Compound 137, (1E,4E)-2-amino-8-(4-cyanophenyl)-N,N-dipropyl-3H-benzo[b]azepine-4-carboxamide] |
| 0.001 to 0.1 | 1 to 10 | CCCN(CCC)C(=O)C1=Cc2ccc(-c3cccc(C(=O)N(C)C)c3)cc2N=C(N)C1 [Compound 138, (1E,4E)-2-amino-8-(3-(dimethylcarbamoyl)phenyl)-N,N-dipropyl-3H-benzo[b]azepine-4-carboxamide] |
| 0.1 to 1 | 1 to 10 | CCCN(CCC)C(=O)C1=Cc2ccc(-c3ccc(C(=O)OCC)cc3)cc2N=C(N)C1 [Compound 139, ethyl 4-((1E,4E)-2-amino-4-(dipropylcarbamoyl)-3H-benzo[b]azepin-8-yl)benzoate] |
| 0.001 to 0.1 | 1 to 10 | CCOC(=O)C1=Cc2ccc(-c3cccnc3)cc2N=C(N)C1 [Compound 142, (1E,4E)-ethyl 2-amino-8-(pyridin-3-yl)-3H-benzo[b]azepine-4-carboxylate] |
| 0.001 to 0.1 | 1 to 10 | CCOC(=O)C1=Cc2ccc(-c3cncnc3)cc2N=C(N)C1 [Compound 144, (1E,4E)-ethyl 2-amino-8-(pyrimidin-5-yl)-3H-benzo[b]azepine-4-carboxylate] |
| 0.1 to 1 | 1 to 10 | CCOC(=O)C1=Cc2ccc(-c3cccc(C(=O)N(C)C)c3)cc2N=C(N)C1 [Compound 147, (1E,4E)-ethyl 2-amino-8-(3-(dimethylcarbamoyl)phenyl)-3H-benzo[b]azepine-4-carboxylate] |
| 0.1 to 1 | 1 to 10 | CCCN(Cc1ccccc1O)C(=O)C1=Cc2ccc(-c3ccc(C(=O)N4CCCC4)cc3)cc2N=C(N)C1 [Compound 174, (1E,4E)-2-amino-N-(2-hydroxybenzyl)-N-propyl-8-(4-(pyrrolidine-1-carbonyl)phenyl)-3H-benzo[b]azepine-4-carboxamide hydrochloride] |
